Source: patent US9315532B2, “Fatty acid carbohydrate hybrid molecules as therapeutic agents and methods thereof” (The Johns Hopkins University, priority 2005, dated 2016)

Columns and labels:
Jurkat cells [1] = assay: Cell viability assay (trypan blue exclusion); assay type: cell-based, human; conditions: 200 μM
Description: Jurkat cells (2.0×10^5 cells/mL) were seeded with 1-4 at 200 μM in 6-well T. C. plates. Aliquots of cell suspension (20 μL) were removed on a daily basis diluted with either PBS (20 μL) or trypan blue solution (20 μL) and cell viability was determined by using the standard trypan blue exclusion method; three replicate counts were taken for each condition.

Jurkat cells [2] = assay: Toxicity and growth inhibition assays (cell counts on days 3, 5 and 15); assay type: cell-based, human
Description: For cell culture studies, But4ManNAc (1) (50) was used as a mixture of anomers (α/β=10/90), But4GlcNAc (2) as pure α-anomer and But5Man (3) as pure β-anomer (It is noteworthy that the intracellular hydrolysis of butyrate esters makes the anomeric configuration less relevant in these studies and we found similar cellular effects between the α- and β-anomers in long term toxicity). Stock solutions of the sugar analogs were made in ethanol at concentrations of 10 mM and 50 mM. In the case of cells growing in suspension the solutions of 1-4 (or an ethanol control at an equivalent volume) were coated onto dishes and the ethanol was allowed to evaporate prior to plating. Unless otherwise noted, throughout this study Jurkat cells (Clone E-6, ATCC, Manassas, Va.) were cultured in RPMI 1640 medium supplemented with 300 mg/L glutamine, 5.0% fetal bovine serum (HyClone, Logan, Utah) and 1.0% of a 100× dilution of a pen/strep stock solution containing penicillin (100 units/mL) and streptomycin (100 μg/mL); HL-60 cells (ATCC, Manassas, Va.) were cultured in RPMI 1640 medium supplemented with 10% FBS and pen/strep; and AD293 (HEK) cells (Stratagene, La Jolla, Calif.) were grown in DMEM medium with 10% FBS and pen/strep. In all cases, cells were incubated in a standard 37° C. in a 5.0% CO2, water-saturated environment. Cell counting was performed with a Beckman-Coulter Z2 particle counter and hemacytometer.
Solutions of the analogs in EtOH (10 mM stock) were coated onto 24-well plates at a range of concentrations from 0-320 μM and ethanol was allowed to evaporate. Jurkat cells (1.0×10^5 cells) in 0.5 mL of medium were plated in each well (day 0). On days 3 and 5, fresh medium (1.0 mL) was added to each well. Cell cultures were mixed by gentle pipetting and 100 μL of cell suspension was taken from each well and counted. On days 7, 9, 11, 13 and 15, 1.0 mL of cell suspension was removed from each well after thorough mixing and fresh medium (1.0 mL) was added. Cells were counted on day 15 and the cell density was plotted as a percentage of control (as was done for cell counts from days 3 and 5).

CCCC(=O)OC[C@H]1OC(OC(=O)CCC)[C@@H](NC(C)=O)[C@@H](OC(=O)CCC)[C@@H]1OC(=O)CCC (stereo partly drawn) [compound 1, 2-Acetylamino-2-deoxy-1,3,4,6-tetra-O-butanoyl-α,β-D-mannopyranoside]
reduced cell viability in trypan blue assay (Jurkat cells [1]): exhibited reduced cell viability
long term growth characteristics (day 15) (Jurkat cells [2]; Jurkat cells, 0-320 μM, day 15): induces both growth arrest and cell death
concentration at which essentially all cells died by day 15 (Jurkat cells [2]; Jurkat cells, day 15): ≥ 80 µM
range for bioactivity (Jurkat cells [2]; ManNAc and butyrate combined in the same molecule): 50 to 100 µM
